≈ marks a conversion by molar mass, not a printed value. Like-named read-outs stand apart in the source and are kept apart here.
Key:
Bifidobacterium bifidum = assay: In vitro MIC testing against anaerobic bacteria; type: cell-based; conditions: ATCC15696; Bifidobacterium bifidum 3965, ATCC 15696
Bifidobacterium brevi = assay: In vitro MIC testing against anaerobic bacteria; type: cell-based; conditions: ATCC15698; Bifidobacterium brevi 3967, ATCC 15698
Bifidobacterium longum = assay: In vitro MIC testing against anaerobic bacteria; type: cell-based; conditions: ATCC15707; Bifidobacterium longum 3968, ATCC 15707
Clostridium perfringens = assay: microbe, parasite or virus in culture; type: cell-based
Clostridium difficile = assay: In vitro MIC testing against anaerobic bacteria; type: cell-based
Lactobacillus casei = assay: In vitro MIC testing against anaerobic bacteria; type: cell-based; conditions: Lacticaseibacillus casei, ATCC393; Lactobacillus casei 1722, ATCC 393
Lactobacillus plantarum = assay: In vitro MIC testing against anaerobic bacteria; type: cell-based; conditions: Lactiplantibacillus plantarum, ATCC39268; Lactobacillus plantarum 2791, ATCC 39268
Propionibacterium acnes = assay: In vitro MIC testing against anaerobic bacteria; type: cell-based; conditions: Cutibacterium acnes
[1] = tested on: Streptococcus intermedius; assay: In vitro MIC testing against anaerobic bacteria; type: cell-based; conditions: ATCC27335; Streptococcus intermedius 1203, ATCC 27335
Bacteroides fragilis = assay: In vitro MIC testing against anaerobic bacteria; type: cell-based
Bacteroides ovatus = assay: In vitro MIC testing against anaerobic bacteria; type: cell-based
[2] = tested on: Bacteroides thetaiotaomicron; assay: In vitro MIC testing against anaerobic bacteria; type: cell-based
Bacteroides vulgatus = assay: In vitro MIC testing against anaerobic bacteria; type: cell-based
Eikenella corrodens = assay: In vitro MIC testing against anaerobic bacteria; type: cell-based; conditions: ATCC43278; Eikenella corrodens 1206, ATCC 43278; read-out: MIC
[3] = tested on: Fusobacterium necrophorum; assay: In vitro MIC testing against anaerobic bacteria; type: cell-based; conditions: Fusobacterium necrophorum, ATCC25286
Fusobacterium nucleatum = assay: In vitro MIC testing against anaerobic bacteria; type: cell-based; conditions: Fusobacterium nucleatum, ATCC25586
[4] = tested on: Porphyromonas asaccharolytica; assay: In vitro MIC testing against anaerobic bacteria; type: cell-based
[5] = tested on: Prevotella melaninogenica; assay: In vitro MIC testing against anaerobic bacteria; type: cell-based
Prevotella spp. = assay: In vitro MIC testing against anaerobic bacteria; type: cell-based
Veillonella parvula = assay: In vitro MIC testing against anaerobic bacteria; type: cell-based; conditions: ATCC17745; Veillonella parvula 1272, ATCC 17745
P. granulosum = assay: In vitro MIC testing, antibacterial spectrum of activity; type: cell-based; conditions: P. granulosum [clinical isolates] (3 isolates)
P. avidum = assay: as above; type: cell-based; conditions: P. avidum [clinical isolates] (4 isolates)
S. epidermidis = assay: as above; type: cell-based, Staphylococcus epidermidis; conditions: for MIC50 / MIC90: Staphylococcus epidermidis; for MIC50: read-out: MIC50; for MIC90: read-out: MIC90
S. pneumoniae = assay: as above; type: cell-based, Streptococcus pneumoniae
S. pyogenes = assay: as above; type: cell-based
S. agalactiae = assay: as above; type: cell-based
S. haemolyticus = assay: as above; type: cell-based; conditions: S. haemolyticus (33 isolates)
[6] = tested on: Streptococcus spp. [Group C]; assay: as above; type: cell-based; conditions: Streptococcus spp. [Group C] (30 isolates)
E. faecalis = assay: as above; type: cell-based
E. coli = assay: as above; type: cell-based; conditions: Escherichia coli
K. pneumoniae = assay: as above; type: cell-based
P. mirabilis = assay: as above; type: cell-based; conditions: P. mirabilis (30 isolates)
P. aeruginosa = assay: as above; type: cell-based; conditions: Pseudomonas aeruginosa; P. aeruginosa (11 isolates)
[7] = S. epidermidis [MRSE] (32 isolates)
[8] = S. epidermidis [MSSE] (31 isolates)
[9] = Klebsiella pneumoniae, K. pneumoniae (31 isolates)

SMILES: CON(C)Cc1ccc(O)c2c1C[C@H]1C[C@H]3[C@H](N(C)C)C(O)=C(C(N)=O)C(=O)[C@@]3(O)C(O)=C1C2=O [The Active, (4S,4aS,5aR,12aS)-4-dimethylamino-3,10,12,12a-tetrahydroxy-7-[(methoxy(methyl)amino)-methyl]-1,11-dioxo-1,4,4a,5,5a,6,11,12a-octahydro-naphthacene-2-carboxylic acid amide]
- MIC (Bifidobacterium bifidum): 1 µg/mL (≈ 2.05 µM)
- MIC (Bifidobacterium brevi): 1 µg/mL (≈ 2.05 µM)
- MIC (Bifidobacterium longum): 4 µg/mL (≈ 8.2 µM)
- MIC (Clostridium perfringens): 16 µg/mL (≈ 32.8 µM)
- MIC (Clostridium perfringens; read-out: MIC, high MIC values): > 16 µg/mL
- MIC (Clostridium difficile; Clostridioides difficile): 0.12 µg/mL (≈ 0.246 µM)
- MIC (Clostridium difficile; Clostridium difficile 3584): 0.12 µg/mL (≈ 0.246 µM)
- MIC (Lactobacillus casei): 2 µg/mL (≈ 4.1 µM)
- MIC (Lactobacillus plantarum): 2 µg/mL (≈ 4.1 µM)
- MIC (Propionibacterium acnes): 0.25 µg/mL (≈ 0.513 µM)
- MIC (Propionibacterium acnes; ATCC11829, Propionibacterium acnes 1286, ATCC 11829, read-out: MIC): 1 µg/mL (≈ 2.05 µM)
- MIC (Propionibacterium acnes; P. acnes, summary of Table 1, read-out: minimum inhibitory concentration (MIC), relatively potent activity): ≤ 4 µg/mL
- MIC [1]: 1 µg/mL (≈ 2.05 µM)
- MIC (Bacteroides fragilis; Bacteroides fragilis 3374): 0.12 µg/mL (≈ 0.246 µM)
- MIC (Bacteroides fragilis; Bacteroides fragilis 3479): 16 µg/mL (≈ 32.8 µM)
- MIC (Bacteroides ovatus): 0.25 µg/mL (≈ 0.513 µM)
- MIC (Bacteroides ovatus; Bacteroides ovatus 3503, read-out: MIC): 8 µg/mL (≈ 16.4 µM)
- MIC ([2]; Bacteroides thetaiotaomicron 3399): 0.25 µg/mL (≈ 0.513 µM)
- MIC ([2]; Bacteroides thetaiotaomicron 3496): 16 µg/mL (≈ 32.8 µM)
- MIC (Bacteroides vulgatus; Bacteroides vulgatus 3494): 16 µg/mL (≈ 32.8 µM)
- MIC (Bacteroides vulgatus; Phocaeicola vulgatus): 16 µg/mL (≈ 32.8 µM)
- MIC (Eikenella corrodens): 1 µg/mL (≈ 2.05 µM)
- MIC [3]: 0.25 µg/mL (≈ 0.513 µM)
- MIC (Fusobacterium nucleatum): 0.25 µg/mL (≈ 0.513 µM)
- MIC [4]: 16 µg/mL (≈ 32.8 µM)
- MIC ([4]; Porphyromonas asaccharolytica 3557, read-out: MIC): 8 µg/mL (≈ 16.4 µM)
- MIC ([5]; Prevotella melaninogenica 3437, read-out: MIC): 32 µg/mL (≈ 65.6 µM)
- MIC ([5]; Prevotella melaninogenica 3443, read-out: MIC): 4 µg/mL (≈ 8.2 µM)
- MIC (Prevotella spp.; Prevotella spp. 3564): 4 µg/mL (≈ 8.2 µM)
- MIC (Prevotella spp.; Prevotella spp. 3568): 2 µg/mL (≈ 4.1 µM)
- MIC (Veillonella parvula): 4 µg/mL (≈ 8.2 µM)
- MIC Range (P. granulosum): 1-1 μg/mL
- MIC Range (P. avidum): 1 to 4 µg/mL
- MIC Range (S. epidermidis; [7]): 0.25 to 2 µg/mL
- MIC Range (S. epidermidis; [8]): 0.12 to 2 µg/mL
- MIC50 (S. epidermidis; [7]): 0.5 µg/mL (≈ 1.03 µM)
- MIC90 (S. epidermidis; [7]): 2 µg/mL (≈ 4.1 µM)
- MIC50 (S. epidermidis; [8]): 0.25 µg/mL (≈ 0.513 µM)
- MIC90 (S. epidermidis; [8]): 2 µg/mL (≈ 4.1 µM)
- MIC Range (S. pneumoniae; S. pneumoniae [PSSP] (32 isolates)): ≦0.03-32 μg/mL
- MIC Range (S. pneumoniae; S. pneumoniae [tetR] (5 isolates)): 4 to 32 µg/mL
- MIC Range (S. pneumoniae; S. pneumoniae [tetS] (5 isolates)): ≦0.06-0.125 μg/mL
- MIC50 (S. pneumoniae; Streptococcus pneumoniae, S. pneumoniae [PSSP] (32 isolates), read-out: MIC50): 0.12 µg/mL (≈ 0.246 µM)
- MIC90 (S. pneumoniae; Streptococcus pneumoniae, S. pneumoniae [PSSP] (32 isolates), read-out: MIC90): 0.25 µg/mL (≈ 0.513 µM)
- MIC (S. pneumoniae; Streptococcus pneumoniae, S. pneumoniae strain PBS # 511, tetM): 4 µg/mL (≈ 8.2 µM)
- MIC Range (S. pyogenes; S. pyogenes (32 isolates)): 0.12 to 16 µg/mL
- MIC Range (S. pyogenes; S. pyogenes [tetR] (5 isolates)): 4 to 16 µg/mL
- MIC Range (S. pyogenes; S. pyogenes [tetS] (5 isolates)): ≦0.06-0.25 μg/mL
- MIC (S. pyogenes; Streptococcus pyogenes, S. pyogenes strain PBS # 330, tetO): 16 µg/mL (≈ 32.8 µM)
- MIC (S. pyogenes; Streptococcus pyogenes, S. pyogenes strain PBS # 792, tetM): 4 µg/mL (≈ 8.2 µM)
- MIC50 (S. pyogenes; Streptococcus pyogenes, S. pyogenes (32 isolates), read-out: MIC50): 0.12 µg/mL (≈ 0.246 µM)
- MIC90 (S. pyogenes; Streptococcus pyogenes, S. pyogenes (32 isolates), read-out: MIC90): 8 µg/mL (≈ 16.4 µM)
- MIC Range (S. agalactiae; S. agalactiae (31 isolates)): 0.12 to 32 µg/mL
- MIC Range (S. agalactiae; S. agalactiae [tetR] (7 isolates)): 16 to 32 µg/mL
- MIC Range (S. agalactiae; S. agalactiae [tetS] (3 isolates)): 0.125 to 0.25 µg/mL
- MIC (S. agalactiae; Streptococcus agalactiae, S. agalactiae strain PBS # 316, tetO): 32 µg/mL (≈ 65.6 µM)
- MIC (S. agalactiae; Streptococcus agalactiae, S. agalactiae strain PBS # 897, tetM): 16 µg/mL (≈ 32.8 µM)
- MIC90 (S. agalactiae; Streptococcus agalactiae, S. agalactiae (31 isolates), read-out: MIC90): 16 µg/mL (≈ 32.8 µM)
- MIC Range (S. haemolyticus): 0.12 to 2 µg/mL
- MIC50 (S. haemolyticus; Staphylococcus haemolyticus, read-out: MIC50): 0.12 µg/mL (≈ 0.246 µM)
- MIC90 (S. haemolyticus; Staphylococcus haemolyticus, read-out: MIC90): 2 µg/mL (≈ 4.1 µM)
- MIC Range [6]: 0.12 to 16 µg/mL
- MIC50 ([6]; read-out: MIC50): 0.25 µg/mL (≈ 0.513 µM)
- MIC90 ([6]; read-out: MIC90): 16 µg/mL (≈ 32.8 µM)
- MIC Range (E. faecalis; E. faecalis [VSE] (31 isolates)): 0.25 to 32 µg/mL
- MIC Range (E. faecalis; E. faecalis [tetR] (6 isolates)): 8 to 32 µg/mL
- MIC (E. faecalis; Enterococcus faecalis, E. faecalis strain PBS # 274, tetL): 32 µg/mL (≈ 65.6 µM)
- MIC (E. faecalis; Enterococcus faecalis, E. faecalis strain PBS # 276, tetM): 16 µg/mL (≈ 32.8 µM)
- MIC (E. faecalis; Enterococcus faecalis, E. faecalis strain PBS # 949, tetS): 8 µg/mL (≈ 16.4 µM)
- MIC50 (E. faecalis; Enterococcus faecalis, E. faecalis [VSE] (31 isolates), read-out: MIC50): 32 µg/mL (≈ 65.6 µM)
- MIC90 (E. faecalis; Enterococcus faecalis, E. faecalis [VSE] (31 isolates), read-out: MIC90): 32 µg/mL (≈ 65.6 µM)
- MIC (E. coli): > 64 µg/mL
- MIC90 (E. coli): > 64 µg/mL
- MIC Range (K. pneumoniae; K. pneumoniae [tetS] (7 isolates)): 16 to 64 µg/mL
- MIC50 (K. pneumoniae; [9]): > 64 µg/mL
- MIC90 (K. pneumoniae; [9]): > 64 µg/mL
- MIC (K. pneumoniae; Klebsiella pneumoniae, K. pneumoniae strain PBS # 266, tetD): > 64 µg/mL
- MIC Range (P. mirabilis): >64 µg/mL
- MIC50 (P. mirabilis; Proteus mirabilis): > 64 µg/mL
- MIC90 (P. mirabilis; Proteus mirabilis): > 64 µg/mL
- MIC50 (P. aeruginosa): > 64 µg/mL
- MIC90 (P. aeruginosa): > 64 µg/mL

Source: US20130302442A1, “METHODS OF USING (4S,4AS,5AR,12AS)-4-DIMETHYLAMINO-3,10,12,12A-TETRAHYDROXY-7-[(METHOXY(METHYL)AMINO)-METHYL]-1,11-DIOXO-1,4,4A,5,5A,6,11,12A-OCTAHYDRO-NAPHTHACENE-2-CARBOXYLIC ACID AMIDE” (priority 2012, published 2013)
